# Earlier results, collected in patent publication US20070196413A1, “Surfactant enhanced quick release pesticide granules” (priority 2003, published 2007).
# Like-named read-outs stand apart in the source and are kept apart here.
smiles,measurement,setting,value
"CNC(=O)CSP(=S)(OC)OC [Cygon, dimethoate]",Time to lose 50 percent of pest control power,mixed in water of pH 9,48 min
same,Time to lose 50 percent of pest control power,pH of 6,720 min
